The values that follow come from patent publication US20090054392A1, “NAPHTHYLPYRIMIDINE, NAPHTHYLPYRAZINE AND NAPHTHYLPYRIDAZINE ANALOGS AND THEIR USE AS AGONISTS OF THE WNT-BETA-CATENIN CELLULAR MESSAGING SYSTEM” (Wyeth, priority 2007, published 2009).

Where two headings read alike, the source gives them in different places.

This data set has as its system Dkk1-LRP5-TCF-Luciferase. The data set can be described thus: Functional Dkk1-LRP5-TCF-Luciferase Assay in U2OS Cells. Particulars: for fold induction at 2 µM: read-out: B = TCF ACTIVITY/DMSO CONTROL Fold induction @ 2.0 uM, 2.0 uM compound; for fold induction at 20 µM: read-out: C = TCF ACTIVITY/DMSO CONTROL Fold induction @ 20.0 uM, 20.0 uM compound; for A = MAX FOLD Induction/DMSO CONTROL: maximum fold induction over DMSO control.

Consider `OC[C@@H]1CCCN1c1nccc(-c2ccc3ccccc3c2)n1` [{(2S)-1-[4-(2-naphthyl)pyrimidin-2-yl]pyrrolidin-2-yl}methanol], for which, under “Homo sapiens, U2OS”, the fold induction at 2 µM worked out at 2.05 and the fold induction at 20 µM amounted to 2.02.

With `CN(C)[C@H]1CCN(C[C@@H]2CCN(c3nccc(-c4ccc5ccccc5c4)n3)C2)C1` [(3S)—N,N-dimethyl-1-({(3S)-1-[4-(2-naphthyl)pyrimidin-2-yl]pyrrolidin-3-yl}methyl)pyrrolidin-3-amine], the “A = MAX FOLD Induction/DMSO CONTROL” value amounted to 1.660 fold. In addition, for the setting “Homo sapiens, U2OS”, the fold induction at 2 µM stood at 2.08 and the fold induction at 20 µM was determined as 0.01.

In the case of `O=C(c1ccccc1)N1CCCN(c2nccc(-c3ccc4ccccc4c3)n2)CC1` [1-benzoyl-4-[4-(2-naphthyl)pyrimidin-2-yl]-1,4-diazepane], under “Homo sapiens, U2OS”, the fold induction at 2 µM stood at 1.06 and the fold induction at 20 µM amounted to 0.35.

Regarding `NC(=O)N[C@H]1CCN(c2nccc(-c3ccc4ccccc4c3)n2)C1` [N-{(3S)-1-[4-(2-naphthyl)pyrimidin-2-yl]pyrrolidin-3-yl}urea], under “Homo sapiens, U2OS”, the fold induction at 20 µM was found to be 1.47.

For `CCN(CCO)CC1CCN(c2nccc(-c3ccc4ccccc4c3)n2)C1` (stereo not shown) [2-[ethyl({1-[4-(2-naphthyl)pyrimidin-2-yl]pyrrolidin-3-yl}methyl)amino]ethanol], the “A = MAX FOLD Induction/DMSO CONTROL” value is on record as 3.635 fold. Moreover, under “Homo sapiens, U2OS”, the response was half-maximal at 2.26 µM (EC50), the fold induction at 2 µM was 2.8 and the fold induction at 20 µM worked out at 0.01.

As for `O[C@H]1CCN(CC2CCN(c3nccc(-c4ccc5ccccc5c4)n3)C2)C1` (stereo partly drawn) [(3S)-1-({1-[4-(2-naphthyl)pyrimidin-2-yl]pyrrolidin-3-yl}methyl)pyrrolidin-3-ol], the fold induction at 2 µM (Homo sapiens, U2OS) stood at 3.2.

With `O=C(N[C@H]1CCN(c2nccc(-c3ccc4ccccc4c3)n2)C1)N1CCCC1` [N-{(3S)-1-[4-(2-naphthyl)pyrimidin-2-yl]pyrrolidin-3-yl}pyrrolidine-1-carboxamide], the fold induction at 2 µM (Homo sapiens, U2OS) was determined as 1.89.

Regarding `CS(=O)(=O)N1CCCN(c2nccc(-c3ccc4ccccc4c3)n2)CC1` [1-(methylsulfonyl)-4-[4-(2-naphthyl)pyrimidin-2-yl]-1,4-diazepane], the “A = MAX FOLD Induction/DMSO CONTROL” value is on record as 1.510 fold. In addition, for the setting “Homo sapiens, U2OS”, the EC50 is 5.61 µM and the fold induction at 20 µM is 1.59.

For `CCCCNc1nccc(-c2ccc3ccccc3c2)n1` [N-butyl-4-(2-naphthyl)pyrimidin-2-amine], the fold induction at 2 µM (Homo sapiens, U2OS) amounted to 1.51.

On to `CCN(CC)C1CCN(c2nccc(-c3ccc4ccccc4c3)n2)C1` (stereo not shown) [N,N-diethyl-1-[4-(2-naphthyl)pyrimidin-2-yl]pyrrolidin-3-amine], for which the “A = MAX FOLD Induction/DMSO CONTROL” value turned out to be 3.680 fold. Also, under “Homo sapiens, U2OS”, the EC50 turned out to be 28.2 µM, the fold induction at 2 µM turned out to be 1.06 and the fold induction at 20 µM worked out at 2.67.

`NC[C@@H]1C[C@@H]2C[C@H]1CN2c1nccc(-c2ccc3ccccc3c2)n1` [1-{(1R,4R,5R)-2-[4-(2-naphthyl)pyrimidin-2-yl]-2-azabicyclo[2.2.1]hept-5-yl}methanamine]: where the note is “Homo sapiens, U2OS”, the fold induction at 2 µM worked out at 1.4.

In the case of `OC[C@@H]1CCCN(c2nccc(-c3ccc4ccccc4c3)n2)C1` [{(3R)-1-[4-(2-naphthyl)pyrimidin-2-yl]piperidin-3-yl}methanol], the “A = MAX FOLD Induction/DMSO CONTROL” value came out at 1.800 fold. Moreover, under “Homo sapiens, U2OS”, the fold induction at 2 µM is 1.98 and the fold induction at 20 µM was 1.08.

For the compound `O=c1[nH]c2ccccc2n1C1CCN(c2nccc(-c3ccc4ccccc4c3)n2)CC1` [1-{1-[4-(2-naphthyl)pyrimidin-2-yl]piperidin-4-yl}-1,3-dihydro-2H-benzimidazol-2-one], where the note is “Homo sapiens, U2OS”, the fold induction at 2 µM was 1.03 and the fold induction at 20 µM worked out at 0.01.

In the case of `N[C@@H]1[C@H]2CN(c3nccc(-c4ccc5ccccc5c4)n3)C[C@@H]12`, a half-maximal response (EC50) required 4 µM and the “A = MAX FOLD Induction/DMSO CONTROL” value came to 5.480 fold. For the setting “2.0 uM compound”, the “B = TCF ACTIVITY/DMSO CONTROL Fold induction @ 2.0 uM” value is listed as 1.920 fold.

In the case of `Cc1ccc(S(=O)(=O)NC2CCCN(c3nccc(-c4ccc5ccccc5c4)n3)CC2)cc1` (stereo not shown) [4-methyl-N-{1-[4-(2-naphthyl)pyrimidin-2-yl]azepan-4-yl}benzenesulfonamide], the “A = MAX FOLD Induction/DMSO CONTROL” value turned out to be 0.780 fold. In addition, under “Homo sapiens, U2OS”, the fold induction at 2 µM worked out at 1.49 and the fold induction at 20 µM was determined as 2.26.

`CN(C)C(=O)N1CC[C@H](Nc2nccc(-c3ccc4ccccc4c3)n2)C1` [(3S)—N,N-dimethyl-3-{[4-(2-naphthyl)pyrimidin-2-yl]amino}pyrrolidine-1-carboxamide]: the “A = MAX FOLD Induction/DMSO CONTROL” value worked out at 2.945 fold. Where the note is “Homo sapiens, U2OS”, the response was half-maximal at 2.7 µM (EC50), the fold induction at 2 µM came to 2.05 and the fold induction at 20 µM worked out at 3.05.

For `CS(=O)(=O)NCC1CCN(c2nccc(-c3ccc4ccccc4c3)n2)CC1` [N-({1-[4-(2-naphthyl)pyrimidin-2-yl]piperidin-4-yl}methyl)methanesulfonamide], where the note is “Homo sapiens, U2OS”, the fold induction at 2 µM came out at 1.12 and the fold induction at 20 µM came out at 0.48.

For `CN(C1CCCCC1)[C@@H]1CCN(c2nccc(-c3ccc4ccccc4c3)n2)C1` [(3R)—N-cyclohexyl-N-methyl-1-[4-(2-naphthyl)pyrimidin-2-yl]pyrrolidin-3-amine], where the note is “Homo sapiens, U2OS”, the fold induction at 2 µM is 1.07 and the fold induction at 20 µM was found to be 1.77.

For `CS(=O)(=O)NCC1CN(c2nccc(-c3ccc4ccccc4c3)n2)C1` [N-({1-[4-(2-naphthyl)pyrimidin-2-yl]azetidin-3-yl}methyl)methanesulfonamide], where the note is “Homo sapiens, U2OS”, the fold induction at 2 µM came out at 1.1 and the fold induction at 20 µM was found to be 1.38.

Consider `CCNC(=O)NCC1CCN(c2nccc(-c3ccc4ccccc4c3)n2)CC1` [N-ethyl-N′-({1-[4-(2-naphthyl)pyrimidin-2-yl]piperidin-4-yl}methyl)urea], for which, where the note is “Homo sapiens, U2OS”, the fold induction at 2 µM came out at 1.7 and the fold induction at 20 µM came to 1.34.

As to `N[C@@H](CO)C1CCN(c2nccc(-c3ccc4ccccc4c3)n2)CC1` [(2R)-2-amino-2-{1-[4-(2-naphthyl)pyrimidin-2-yl]piperidin-4-yl}ethanol], the “A = MAX FOLD Induction/DMSO CONTROL” value amounted to 1.660 fold. The fold induction at 2 µM (Homo sapiens, U2OS) was 2.96.

As to `CN(C)C(=O)NCCC1CCN(c2nccc(-c3ccc4ccccc4c3)n2)CC1` [N,N-dimethyl-N′-(2-{1-[4-(2-naphthyl)pyrimidin-2-yl]piperidin-4-yl}ethyl)urea], for the setting “Homo sapiens, U2OS”, the fold induction at 2 µM stood at 1.48 and the fold induction at 20 µM is 0.18.

On to `c1ccc2cc(-c3ccnc(N4CCC(CN5CCC5)C4)n3)ccc2c1` (stereo not shown) [2-[3-(azetidin-1-ylmethyl)pyrrolidin-1-yl]-4-(2-naphthyl)pyrimidine], for which the “A = MAX FOLD Induction/DMSO CONTROL” value turned out to be 2.500 fold. The fold induction at 2 µM (Homo sapiens, U2OS) is 1.73.

Consider `COc1ccc(-c2ccc3cc(-c4ccnc(N5CCC(CN)CC5)n4)ccc3c2)cc1` [1-(1-{4-[6-(4-methoxyphenyl)-2-naphthyl]pyrimidin-2-yl}piperidin-4-yl)methanamine], for which the fold induction at 20 µM (Homo sapiens, U2OS) is 1.9.

As for `CS(=O)(=O)NCCC1CCN(c2nccc(-c3ccc4ccccc4c3)n2)CC1` [N-(2-{1-[4-(2-naphthyl)pyrimidin-2-yl]piperidin-4-yl}ethyl)methanesulfonamide], the “A = MAX FOLD Induction/DMSO CONTROL” value was 0.880 fold.

For `N#CC1CCN(c2nccc(-c3ccc4ccccc4c3)n2)CC1` [1-[4-(2-naphthyl)pyrimidin-2-yl]piperidine-4-carbonitrile], the “A = MAX FOLD Induction/DMSO CONTROL” value stood at 5.015 fold. Besides, for the setting “Homo sapiens, U2OS”, the EC50 was 1.07 µM and the fold induction at 2 µM is 2.79.

Consider `CC(C)NC(=O)N[C@@H]1CCN(c2nccc(-c3ccc4ccccc4c3)n2)C1` [N-isopropyl-N′-{(3R)-1-[4-(2-naphthyl)pyrimidin-2-yl]pyrrolidin-3-yl}urea], for which, where the note is “Homo sapiens, U2OS”, the fold induction at 2 µM was 1.19 and the fold induction at 20 µM is 1.09.

For the compound `O[C@H]1CCCN(CC2CCN(c3nccc(-c4ccc5ccccc5c4)n3)C2)C1` (stereo partly drawn) [(3S)-1-({1-[4-(2-naphthyl)pyrimidin-2-yl]pyrrolidin-3-yl}methyl)piperidin-3-ol], the “A = MAX FOLD Induction/DMSO CONTROL” value stood at 6.950 fold. Also, where the note is “Homo sapiens, U2OS”, the EC50 turned out to be 1.01 µM and the fold induction at 2 µM turned out to be 4.34.

For `CCOC(=O)CC1CCN(c2nccc(-c3ccc4ccccc4c3)n2)CC1` [ethyl {1-[4-(2-naphthyl)pyrimidin-2-yl]piperidin-4-yl}acetate], under “Homo sapiens, U2OS”, the fold induction at 2 µM worked out at 1.26 and the fold induction at 20 µM is 1.06.

Take `c1ccc2cc(-c3ccnc(N4CCC(CN5CCCCCC5)C4)n3)ccc2c1` (stereo not shown) [1-({1-[4-(2-naphthyl)pyrimidin-2-yl]pyrrolidin-3-yl}methyl)azepane]: the “A = MAX FOLD Induction/DMSO CONTROL” value is recorded as 2.260 fold. In addition, the fold induction at 2 µM (Homo sapiens, U2OS) worked out at 2.33.

For `COC(=O)N(C)CCN(C)[C@@H]1CCN(c2nccc(-c3ccc4ccccc4c3)n2)C1` [methyl methyl[2-(methyl{(3R)-1-[4-(2-naphthyl)pyrimidin-2-yl]pyrrolidin-3-yl}amino)ethyl]carbamate], the fold induction at 20 µM (Homo sapiens, U2OS) stood at 1.2.

As for `CN(CCN(C)S(C)(=O)=O)[C@@H]1CCN(c2nccc(-c3ccc4ccccc4c3)n2)C1` [N-methyl-N-[2-(methyl{(3R)-1-[4-(2-naphthyl)pyrimidin-2-yl]pyrrolidin-3-yl}amino)ethyl]methanesulfonamide], for the setting “Homo sapiens, U2OS”, the fold induction at 20 µM worked out at 1.9.

Take `c1ccc2cc(-c3ccnc(N4CC[C@H](N5CC6CCNC6C5)C4)n3)ccc2c1` (stereo partly drawn) [5-{(3S)-1-[4-(2-naphthyl)pyrimidin-2-yl]pyrrolidin-3-yl}octahydropyrrolo[3,4-b]pyrrole]: the fold induction at 2 µM (Homo sapiens, U2OS) amounted to 2.2.

Consider `CC1CCN(c2nccc(-c3ccc4ccccc4c3)n2)CC1` [2-(4-methylpiperidin-1-yl)-4-(2-naphthyl)pyrimidine], for which the fold induction at 2 µM (Homo sapiens, U2OS) turned out to be 1.51.

`c1ccc2cc(-c3ccnc(N4CCC(CN5CCCC5)CC4)n3)ccc2c1` [4-(2-naphthyl)-2-[4-(pyrrolidin-1-ylmethyl)piperidin-1-yl]pyrimidine] came in with a concentration giving a half-maximal response (EC50) of 3.18 µM. Moreover, for the setting “Homo sapiens, U2OS”, a half-maximal effect (EC50) was put at 3.5 µM and the fold induction at 2 µM worked out at 2.07.
